Laboratory results published in US20200165194A1, “ADDITIVE COMPOSITION FOR CULTURE MEDIUM, ADDITIVE COMPOUND FOR CULTURE MEDIUM, AND METHOD FOR CULTURE OF CELLS OR TISSUE USING SAME” (NISSAN CHEMICAL CORPORATION, priority 2017, published 2020).

Assays:
Assay type in all cases: cell-based
[1] = test system: Human mesenchymal stem cells (hMSC); assay: Human mesenchymal stem cells-1: viable cell count, 2D and 3D culture (Experimental Example 9); conditions: for cell proliferation rate (relative value): hMSC, 10 μM, 7 days, compound non-addition = 1; for number of hMSC cells (in words): two-dimensional and three-dimensional cell culture conditions
Procedure: Human mesenchymal stem cells (hMSC, manufactured by TOYOBO) were precultured by a single layer culture method (2D) using an MF-medium mesenchymal stem cell proliferation medium (manufactured by TOYOBO). In three-dimensional culture method (3D), hMSC were suspended in a medium composition added with deacylated gellan gum, and seeded in a […] flat bottom Ultr-low Attachment surface plate (manufactured by Corning Incorporated, #3471) at 1.2×10^5 cells/2 mL/well. In 2D, hMSC were suspended in a deacylated gellan gum-free medium composition, and seeded in a 6-well flat bottom plate (manufactured by Corning Incorporated, #3516) at 4.0×10^4 cells/2 mL/well. […] As a control, DMSO was added at a final concentration of 0.1%. Seven days later, in the three-dimensional culture method, cells were collected from the wells, washed with PBS, and the supernatant was removed. Then, a trypsin 0.25 w/v % trypsin-1 mmol/L EDTA (ethylenediaminetetraacetic acid) solution (manufactured by Wako Pure Chemical Industries, Ltd.) was added and the cells were incubated at 37° C. for 2-5 min to disperse the spheres into single cells. The medium was added, and the mixture was centrifuged to remove the supernatant. Thereafter, the cells were resuspended in the same medium, a part was suspended in Trypan Blue (manufactured by Wako Pure Chemical Industries, Ltd.), and the number of viable cells was counted using automatic cell counter TC20 (manufactured by BIO-RAD).
In a single layer culture method, the cells were washed with PBS, 0.25 w/v % trypsin-1 mmol/L EDTA solution was added, and the cells were detached by incubating at 37° C. for 2-5 min. The medium was added, the mixture was centrifuged and the supernatant was removed. Thereafter, the cells were resuspended in the same medium, a part was suspended in Trypan Blue (manufactured by Wako Pure Chemical Industries, Ltd.) and the number of viable cells was counted using TC-20 (manufactured by BIO-RAD).
CD34 antibody (APC, manufactured by BD Bioscience), CD73 (BV421, manufactured by BD Bioscience), CD29 (BB515, manufactured by BD Bioscience) were added to the above-mentioned cell suspension, and the mixture was incubated on ice for 30 min. The cells were washed twice with 2% SM buffer (2% FBS/PBS), SM containing 1 μg/mL of Propidium Iodide (PI) was added, and the mixture was analyzed with FACSAria (manufactured by Becton Dickinson). The cell number with compound non-addition (control) was taken as 1, and relative value with addition of each compound is calculated in the fifteenth table. The positive rates or negative rates of CD34, CD73, and CD29 of cells after three-dimensional culture (3D) under the conditions with no addition or addition of the compound are shown in the sixteenth table.

[2] = test system: mouse small intestinal organoid (Crypt); assay: Small intestine organoid formation in Matrigel (Experimental Example 4); conditions: 5 μM, 7 days
Procedure: About 20 cm of the mouse small intestine was excised, and the adipose tissue and vascular tissue were removed on ice. The contents were sufficiently washed with PBS, cut open with scissors, and fragmented to about 2 mm. They were washed 20 times with 15 mL of PBS and the supernatant was removed. 25 mL of Gentle Cell Dissociation Reagent (manufactured by STEMCELL) was added, and the mixture was incubated at room temperature for 15 min while stirring at 20 rpm. The supernatant was removed, 10 mL of cold 0.1% BSA/PBS was added to the precipitate, and pipetting was performed three times. The supernatant was filtered with a 70 μm cell strainer (manufactured by BD Bioscience), and the filtrate was collected. Similarly, addition of 0.1% BSA/PBS to the remaining precipitate, pipetting, and filtration were repeated three times, and thus series of the four filtrates were prepared. Each filtrate was centrifuged at 290 g for 5 min at 4° C. After removing the supernatant, the cells were resuspended in 10 mL of cold 0.1% BSA/PBS and centrifuged at 200 g for 3 min at 4° C. The supernatant was removed, 10 mL of DMEM/F12 (manufactured by Wako Pure Chemical Industries, Ltd.) was added and the cells were suspended. 1 mL was separated and observed under a microscope. A filtrate having a sufficient intestinal fragment (Crypt) was selected, and the number of Crypt was counted using a hemocytometer. Cold Matrigel (registered trade mark) Matrix GFR(manufactured by Corning) in an equal amount to the cell suspension was added, mixed, and quickly dispensed into a 24-well plate warmed to 37° C. at 500 crypts/[…]/well. The plate was allowed to stand at 37° C. for 10 min to complete gelation. […] As a control, a well with no addition of the compound was prepared. After culturing for 7 days, the number and diameter of the formed small intestinal organoids were measured under a microscope, and the comparison results with no addition (control) are shown in the ninth table.

[3] = test system: Canine kidney renal tubule epithelial cells (MDCK cells); assay: MDCK cells-1: Cyst formation on Matrigel, Cyst area by fluorescence microscope (Experimental Example 7); conditions: 10 μM, 7 days
Procedure: Canine kidney renal tubule epithelial cells (MDCK cells, manufactured by DS PHARMA BIO MEDICAL) were precultured in EMEM medium containing 10% FBS and 1% NEAA. Cold Matrigel (registered trade mark) Matrix GFR (manufactured by Corning) was spread on a 24-well plate by 50 μL and fixed by incubating at 37° C. for 15 min. The aforementioned MDCK cells were suspended in a medium at a concentration of 20000 cells/mL, cold Matrigel (registered trade mark) Matrix GFR was added at […] and seeded at 1 mL/well. […] As a control (compound no-addition), DMSO was added at a final concentration of 0.1%. Seven days later, the cells were washed with PBS (1 mL/well), 4% paraformaldehyde/PBS (manufactured by Wako Pure Chemical Industries, Ltd.) was added (1 mL/well) and fixed at room temperature for 20 min. Thereafter, the supernatant was removed, IF buffer (0.2% Triton X-100 (manufactured by Sigma-Aldrich), 0.05% Tween 20 (manufactured by Sigma-Aldrich)-containing PBS) were added at 1 mL/well, stood for 30 min and removed. […] After washing 3 times every 5 min with IF buffer, VECTASHIELD Mounting Medium with DAPI (manufactured by Vector Laboratories) was added dropwise, and the cells were observed and analyzed with a fluorescence microscope (ArrayScan, manufactured by Thermo Fisher Scientific).

Structure (SMILES): CC/C(=N\NC(=O)Nc1ccccc1)c1ccc(O)c(C)c1O [k-1:H-10]
- cell proliferation rate (relative value) ([1]; 2D): 1.3
- cell proliferation rate (relative value) ([1]; 3D (deacylated gellan gum)): 1.7
- number of hMSC cells (in words) [1]: showed an effect of increasing the number of hMSC cells

Structure (SMILES): CCC(=NNC(=O)C(CC)Nc1ccccc1)c1ccc(O)c(C)c1O (centres unmarked) [k-1:H-7]
- organoid diameter (μm) ([2]; control 130 ± 18): 153 ± 21 μm
- organoid number (relative value) ([2]; control = 1): 2.5
- organoid formation (in words) ([2]; mouse small intestinal organoid culture): promotes organoid formation
- cell proliferation rate (relative value) ([1]; 2D): 1.9
- cell proliferation rate (relative value) ([1]; 3D (deacylated gellan gum)): 4
- number of hMSC cells (in words) [1]: showed an effect of increasing the number of hMSC cells
- increase of the area per one Cyst ([3]; Control as 100): ≥ 20%
- Cyst area (relative value) ([3]; control = 100): 124
